Earlier results on two compounds are cited in patent US20210299023A1, “COMPOSITIONS AND METHODS FOR HAIR GROWTH” (Allergan, Inc., priority 2010, published 2021).

Molecules are shown by their SMILES.

In one series the test system is eyelash. The settings on record: healthy patients.
For another series, the system named is bald scalp of macaques. Particulars: 0.05% latanoprost.

As for `CCNC(=O)CCC/C=C\C[C@@H]1[C@@H](/C=C/[C@@H](O)CCc2ccccc2)[C@H](O)C[C@@H]1O` [Bimatoprost, bimatoprost], in the series with eyelash, the eyelash growth result is “increased length, thickness, and darkness”.

Turning to `CC(C)OC(=O)CCC/C=C\C[C@@H]1[C@@H](CC[C@@H](O)CCc2ccccc2)[C@H](O)C[C@@H]1O` [latanoprost], the hair growth entry in the series with bald scalp of macaques is given as “significant hair growth”. The “density and thickness of hair” value in the series on bald scalp of macaques (after 3 months of treatment) is recorded as “increased significantly”.
